Assay results taken from patent US10538498B2, “1,3,4-oxadiazole sulfonamide derivative compounds as histone deacetylase 6 inhibitor, and the pharmaceutical composition comprising the same” (Chong Kun Dang Pharmaceutical Corp., priority 2015, dated 2020).

Experiments:
human recombinant HDAC1 = target: T1, human recombinant HDAC1 (Homo sapiens, UniProt Q13547); test: HDAC1 enzyme activity inhibition assay (HDAC Fluorimetric Drug Discovery Kit); assay type: biochemical; conditions: 0.3 μg enzyme, 10 μM substrate, 30° C., 60 minutes
T1 construct: purchased Enzo Life Science BML-SE456
Procedure, shortened: (§1)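 Human recombinant enzyme, 0.3 μg, incubated with 10 μM Fluor de Lys-SIRT1 substrate and 5-fold compound dilutions at 30° C for 60 min. Developer II added for 30 min, then fluorescence read (Ex 360/Em 460). IC50 values derived from the fluorescence data.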

human recombinant HDAC6 = target: T2, human recombinant HDAC6 (Homo sapiens, UniProt Q9UBN7); test: HDAC6 enzyme activity inhibition assay (HDAC Fluorimetric Drug Discovery Kit); assay type: biochemical; conditions: for HDAC6 selectivity (fold): HDAC1 vs HDAC6; for IC50: same protocol as the HDAC1 enzyme activity test
T2 construct: purchased Calbiochem 382180
T2 sequence (Q9UBN7 1-1215): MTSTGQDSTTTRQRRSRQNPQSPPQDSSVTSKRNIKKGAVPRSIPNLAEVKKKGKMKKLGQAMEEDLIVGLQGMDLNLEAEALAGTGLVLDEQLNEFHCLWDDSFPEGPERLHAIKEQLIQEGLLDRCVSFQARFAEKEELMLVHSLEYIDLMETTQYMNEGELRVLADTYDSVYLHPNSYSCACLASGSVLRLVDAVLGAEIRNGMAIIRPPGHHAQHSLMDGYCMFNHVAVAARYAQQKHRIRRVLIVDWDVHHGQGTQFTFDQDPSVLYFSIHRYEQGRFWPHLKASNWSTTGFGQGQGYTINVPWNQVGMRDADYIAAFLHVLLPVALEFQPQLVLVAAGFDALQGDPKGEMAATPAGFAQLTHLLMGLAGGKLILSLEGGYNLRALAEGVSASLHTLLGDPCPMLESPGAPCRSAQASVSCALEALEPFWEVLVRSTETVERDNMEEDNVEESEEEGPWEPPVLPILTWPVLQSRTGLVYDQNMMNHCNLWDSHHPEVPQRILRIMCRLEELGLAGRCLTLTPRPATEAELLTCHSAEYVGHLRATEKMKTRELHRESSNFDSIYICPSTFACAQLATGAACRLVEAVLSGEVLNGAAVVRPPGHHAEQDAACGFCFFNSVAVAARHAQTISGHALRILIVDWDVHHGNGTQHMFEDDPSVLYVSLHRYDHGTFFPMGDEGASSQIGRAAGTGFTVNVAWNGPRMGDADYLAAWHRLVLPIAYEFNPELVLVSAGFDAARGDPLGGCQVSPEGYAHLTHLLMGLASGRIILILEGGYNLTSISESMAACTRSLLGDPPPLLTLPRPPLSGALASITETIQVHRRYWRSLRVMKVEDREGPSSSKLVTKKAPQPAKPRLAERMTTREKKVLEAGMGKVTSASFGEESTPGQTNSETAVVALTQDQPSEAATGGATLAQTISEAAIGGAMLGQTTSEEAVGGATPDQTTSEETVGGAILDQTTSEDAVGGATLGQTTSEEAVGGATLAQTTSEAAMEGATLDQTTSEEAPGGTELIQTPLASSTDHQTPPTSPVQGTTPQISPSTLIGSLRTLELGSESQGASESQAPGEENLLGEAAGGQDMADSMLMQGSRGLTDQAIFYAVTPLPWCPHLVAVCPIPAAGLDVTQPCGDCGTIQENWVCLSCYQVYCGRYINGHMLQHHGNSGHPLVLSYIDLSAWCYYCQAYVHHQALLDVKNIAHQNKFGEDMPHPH
Procedure, shortened: as §1

T1 sequence (Q13547 whole entry): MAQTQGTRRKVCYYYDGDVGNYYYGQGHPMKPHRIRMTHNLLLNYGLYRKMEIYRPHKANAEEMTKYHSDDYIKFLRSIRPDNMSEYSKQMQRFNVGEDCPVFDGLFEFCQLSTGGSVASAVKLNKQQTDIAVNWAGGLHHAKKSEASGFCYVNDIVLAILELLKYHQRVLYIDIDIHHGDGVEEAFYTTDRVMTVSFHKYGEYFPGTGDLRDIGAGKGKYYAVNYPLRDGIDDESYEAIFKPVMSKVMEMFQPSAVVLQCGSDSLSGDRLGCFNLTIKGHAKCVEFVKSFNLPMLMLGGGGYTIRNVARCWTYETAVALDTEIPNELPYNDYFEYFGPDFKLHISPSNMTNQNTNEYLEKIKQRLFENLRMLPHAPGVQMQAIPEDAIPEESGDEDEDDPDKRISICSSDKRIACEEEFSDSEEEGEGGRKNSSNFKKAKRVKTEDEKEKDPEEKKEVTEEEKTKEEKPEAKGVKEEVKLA

SMILES	IC50 (human recombinant HDAC1) [µM]	HDAC6 selectivity (fold) (human recombinant HDAC6)	IC50 (human recombinant HDAC6) [µM]
Cc1cccc(N(Cc2ccc(-c3nnc(C(F)F)o3)cn2)S(=O)(=O)C2CCN(C3CCC(F)(F)CC3)CC2)c1 [Compound 11687, 1-(4,4-difluorocyclohexyl)-N-((5-(5-(difluoromethyl)-1,3,4-oxadiazol-2-yl)pyridin-2-yl)methyl)-N-(m-tolyl)piperidine-4-sulfonamide]	79.1	741	0.107
Cc1cccc(N(Cc2ccc(-c3nnc(C(F)F)o3)cn2)S(=O)(=O)C2CCN([C@H]3CC[C@H](F)CC3)CC2)c1 [Compound 11688, N-((5-(5-(difluoromethyl)-1,3,4-oxadiazol-2-yl)pyridin-2-yl)methyl)-1-((1r,4r)-4-fluorocyclohexyl)-N-(m-tolyl)piperidine-4-sulfonamide]	20.2	423	0.0477
Cc1cccc(N(Cc2ccc(-c3nnc(C(F)F)o3)cn2)S(=O)(=O)C2CCN([C@H]3CC[C@@H](F)CC3)CC2)c1 [Compound 11689, N-((5-(5-(difluoromethyl)-1,3,4-oxadiazol-2-yl)pyridin-2-yl)methyl)-1-((1s,4s)-4-fluorocyclohexyl)-N-(m-tolyl)piperidine-4-sulfonamide]	20	429	0.0466
Cc1cccc(N(Cc2ccc(-c3nnc(C(F)F)o3)cn2)S(=O)(=O)C2CCN([C@H]3CC[C@H](C(F)(F)F)CC3)CC2)c1 [Compound 11690, N-((5-(5-(difluoromethyl)-1,3,4-oxadiazol-2-yl)pyridin-2-yl)methyl)-N-(m-tolyl)-1-((1r,4r)-4-(trifluoromethyl)cyclohexyl)piperidine-4-sulfonamide]	54.8	244	0.225
Cc1cccc(N(Cc2ccc(-c3nnc(C(F)F)o3)cn2)S(=O)(=O)C2CCN([C@H]3CC[C@@H](C(F)(F)F)CC3)CC2)c1 [Compound 11691, N-((5-(5-(difluoromethyl)-1,3,4-oxadiazol-2-yl)pyridin-2-yl)methyl)-N-(m-tolyl)-1-((1s,4s)-4-(trifluoromethyl)cyclohexyl)piperidine-4-sulfonamide]	34.2	425	0.0805
Cc1cccc(N(Cc2ccc(-c3nnc(C(F)F)o3)cn2)S(=O)(=O)C2CCN(C3CCOCC3)CC2)c1 [Compound 11692, N-((5-(5-(difluoromethyl)-1,3,4-oxadiazol-2-yl)pyridin-2-yl)methyl)-1-(tetrahydro-2H-pyran-4-yl)-N-(m-tolyl)piperidine-4-sulfonamide]	71.7	1309	0.0547
Cc1cccc(N(Cc2ccc(-c3nnc(C(F)F)o3)cc2)S(=O)(=O)C2CCN([C@H]3CC[C@H](F)CC3)CC2)c1 [Compound 11695, N-(4-(5-(difluoromethyl)-1,3,4-oxadiazol-2-yl)benzyl)-1-((1r,4r)-4-fluorocyclohexyl)-N-(m-tolyl)piperidine-4-sulfonamide]	61.4	306	0.2
Cc1cccc(N(Cc2ccc(-c3nnc(C(F)F)o3)cc2)S(=O)(=O)C2CCN([C@H]3CC[C@@H](F)CC3)CC2)c1 [Compound 11696, N-(4-(5-(difluoromethyl)-1,3,4-oxadiazol-2-yl)benzyl)-1-((1s,4s)-4-fluorocyclohexyl)-N-(m-tolyl)piperidine-4-sulfonamide]	51.4	289	0.178
C[C@H]1CCCN1CCCS(=O)(=O)N(Cc1ccc(-c2nnc(C(F)F)o2)cc1)c1ccccc1 [Compound 11707, (S)—N-(4-(5-(difluoromethyl)-1,3,4-oxadiazol-2-yl)benzyl)-3-(2-methylpyrrolidin-1-yl)-N-phenylpropane-1-sulfonamide]	42.5	597	0.0711
O=S(=O)(CCCO)N(Cc1ccc(-c2nnc(C(F)F)o2)cc1)c1ccccc1 [Compound 11708, N-(4-(5-(difluoromethyl)-1,3,4-oxadiazol-2-yl)benzyl)-3-hydroxy-N-phenylpropane-1-sulfonamide]	65.1	837	0.0778
O=C(OCCCS(=O)(=O)N(Cc1ccc(-c2nnc(C(F)F)o2)cc1)c1ccccc1)C(F)F [Compound 11709, 3-(N-(4-(5-(difluoromethyl)-1,3,4-oxadiazol-2-yl)benzyl)-N-phenylsulfamoyl)propyl 2,2-difluoroacetate]	80.4	1065	0.0755
O=S(=O)(CCCN1CCCC1)N(Cc1ccc(-c2nnc(C(F)F)o2)cn1)c1ccccc1 [Compound 11710, N-((5-(5-(difluoromethyl)-1,3,4-oxadiazol-2-yl)pyridin-2-yl)methyl)-N-phenyl-3-(pyrrolidin-1-yl)propane-1-sulfonamide]	29.4	578	0.0509
O=S(=O)(CCCN1CCOCC1)N(Cc1ccc(-c2nnc(C(F)F)o2)cn1)c1ccc(F)c(Cl)c1 [Compound 11711, N-(3-chloro-4-fluorophenyl)-N-((5-(5-(difluoromethyl)-1,3,4-oxadiazol-2-yl)pyridin-2-yl)methyl)-3-morpholinopropane-1-sulfonamide]	61.3	874	0.0701
O=S(=O)(CCCN1CCCC1)N(Cc1ccc(-c2nnc(C(F)F)o2)cc1)c1ccc(F)c(Cl)c1 [Compound 11722, N-(3-chloro-4-fluorophenyl)-N-(4-(5-(difluoromethyl)-1,3,4-oxadiazol-2-yl)benzyl)-3-(pyrrolidin-1-yl)propane-1-sulfonamide]	41	1266	0.0324
O=S(=O)(C1CCN([C@H]2CC[C@H](F)CC2)CC1)N(Cc1ccc(-c2nnc(C(F)F)o2)cn1)c1cccc(Cl)c1 [Compound 11727, N-(3-chlorophenyl)-N-((5-(5-(difluoromethyl)-1,3,4-oxadiazol-2-yl)pyridin-2-yl)methyl)-1-((1r,4r)-4-fluorocyclohexyl)piperidine-4-sulfonamide]	33.5	594	0.0563
O=S(=O)(C1CCN([C@H]2CC[C@@H](F)CC2)CC1)N(Cc1ccc(-c2nnc(C(F)F)o2)cn1)c1cccc(Cl)c1 [Compound 11728, N-(3-chlorophenyl)-N-((5-(5-(difluoromethyl)-1,3,4-oxadiazol-2-yl)pyridin-2-yl)methyl)-1-((1s,4s)-4-fluorocyclohexyl)piperidine-4-sulfonamide]	21.6	453	0.0476
NC(=O)[C@@H]1CCCN1CCS(=O)(=O)N(Cc1ccc(-c2nnc(C(F)F)o2)cn1)c1ccccc1 [Compound 11847, (S)-1-(2-(N-((5-(5-(difluoromethyl)-1,3,4-oxadiazol-2-yl)pyridin-2-yl)methyl)-N-phenylsulfamoyl)ethyl)pyrrolidine-2-carboxamide]	24.5	445	0.0551
NC(=O)[C@H]1CCCN1CCS(=O)(=O)N(Cc1ccc(-c2nnc(C(F)F)o2)cn1)c1ccccc1 [Compound 11848, (R)-1-(2-(N-((5-(5-(difluoromethyl)-1,3,4-oxadiazol-2-yl)pyridin-2-yl)methyl)-N-phenylsulfamoyl)ethyl)pyrrolidine-2-carboxamide]	38.9	661	0.0589
